Tests used:
Type in all cases: in vivo
[1] = system: spider mite (Tetranychus urticae); assay: Tetranychus test (OP resistant/dip treatment); settings: active compound concentration 0.1%; after 5 days; bean plants dipped
Description: Tetranychus Test (OP Resistant/dip Treatment)
Solvent: 3 parts by weight of dimethylformamide
Emulsifier: 1 part by weight of alkylaryl polyglycol ether
To produce a suitable preparation of active compound, 1 part by weight of active compound is mixed with the stated amount of solvent and the stated amount of emulsifier, and the concentrate is diluted with water to the desired concentration.
Bean plants (Phaseolus vulgaris) heavily infected by all stages of the spider mite (Tetranychus urticae) are dipped into a preparation of the active compound of the desired concentration.
After the specified period of time, the destruction in % is determined. 100% means that all spider mites have been killed; 0% means that none of the spider mites have been killed.

[2] = system: larvae of the green rice leafhopper (Nephotettix cincticeps); assay: Nephotettix test; settings: active compound concentration 0.1%; after 6 days; rice seedlings dipped
Description: Nephotettix Test Solvent: 7 parts by weight of dimethylformamide Emulsifier: 1 part by weight of alkylaryl polyglycol ether To produce a suitable preparation of active compound, 1 part by weight of active compound is mixed with the stated amount of solvent and the stated amount of emulsifier, and the concentrate is diluted with water to the desired concentration. Rice seedlings (Oryzae sativa) are treated by being dipped into the preparation of the active compound of the desired concentration and are infested with larvae of the green rice leafhopper (Nephotettix cincticeps) while the seedlings are still moist. After the specified period of time, the destruction in % is determined. 100% means that all the leafhoppers have been killed; 0% means that none of the leafhoppers have been killed.

[3] = system: caterpillars of the diamond-back moth (Plutella maculipennis); assay: Plutella test; settings: active compound concentration 0.1%; after 7 days; cabbage leaves dipped
Description: Plutella Test Solvent: 7 parts by weight of dimethylformamide Emulsifier: 1 part by weight of alkylaryl polyglycol ether To produce a suitable preparation of active compound, 1 part by weight of active compound is mixed with the stated amount of solvent and the stated amount of emulsifier, and the concentrate is diluted with water to the desired concentration. Cabbage leaves (Brassica oleracea) are treated by being dipped into the preparation of active compound of the desired concentration and are infested with caterpillars of the diamond-back moth (Plutella maculipennis) while the leaves are still moist. After the specified period of time, the destruction in % is determined. 100% means that all the caterpillars have been killed; 0% means that none of the caterpillars have been killed.

[4] = system: mustard beetle larvae (Phaedon cochleariae); assay: Phaedon larvae test; settings: active compound concentration 1000 ppm; after 7 days; cabbage leaves dipped
Description: Phaedon Larvae Test Solvent: 7 parts by weight of dimethylformamide Emulsifier: 1 part by weight of alkylaryl polyglycol ether To produce a suitable preparation of active compound, 1 part by weight of active compound is mixed with the stated amount of solvent and the stated amount of emulsifier, and the concentrate is diluted with water to the desired concentration. Cabbage leaves (Brassica oleracea) are treated by being dipped into the preparation of the active compound of the desired concentration and are infested with mustard beetle larvae (Phaedon cochleariae) while the leaves are still moist. After the specified period of time, the destruction in % is determined. 100% means that all the beetle larvae have been killed; 0% means that none of the beetle larvae have been killed.

| SMILES | destruction in % [1] [%] | destruction in % [2] [%] | destruction in % [3] [%] | destruction in % [4] [%] |
| --- | --- | --- | --- | --- |
| Cc1ccc(Cl)c(C)c1C1=C(O)C2(CCC(C)CC2)NC1=O (centres unmarked) [I-1-a-1] | 100 | 100 |  |  |
| Cc1ccc(Cl)c(C)c1C1=C(OC(=O)CC(C)C)C2(CCC(C)CC2)NC1=O (centres unmarked) [I-1-b-1] |  | 100 | 100 | 100 |
| CCOC(=O)OC1=C(c2c(C)ccc(Cl)c2C)C(=O)NC12CCC(C)CC2 (centres unmarked) [I-1-c-1] |  |  | 100 | 100 |
| Cc1ccc(Cl)c(C)c1C1=C(OC(=O)C(C)(C)C)C2(CCCCC2)OC1=O [I-2-b-1] | 100 |  |  |  |

Source: patent US6486343B1, “Substituted phenyl keto enols as pesticides and herbicides” (Bayer Aktiengesellschaft, priority 1996, dated 2002)
